Like-named read-outs stand apart in the source and are kept apart here.
Target: T1, Recombinant human TPH1 (MBP tagged) (Homo sapiens, UniProt P17752)
T1 construct: cloning full length human TPH1 cDNA in to a bacterial pMAL-c5E expression vector; made in house; host or cells: E. coli BL21 (DE3)
T1 sequence (P17752 1-444): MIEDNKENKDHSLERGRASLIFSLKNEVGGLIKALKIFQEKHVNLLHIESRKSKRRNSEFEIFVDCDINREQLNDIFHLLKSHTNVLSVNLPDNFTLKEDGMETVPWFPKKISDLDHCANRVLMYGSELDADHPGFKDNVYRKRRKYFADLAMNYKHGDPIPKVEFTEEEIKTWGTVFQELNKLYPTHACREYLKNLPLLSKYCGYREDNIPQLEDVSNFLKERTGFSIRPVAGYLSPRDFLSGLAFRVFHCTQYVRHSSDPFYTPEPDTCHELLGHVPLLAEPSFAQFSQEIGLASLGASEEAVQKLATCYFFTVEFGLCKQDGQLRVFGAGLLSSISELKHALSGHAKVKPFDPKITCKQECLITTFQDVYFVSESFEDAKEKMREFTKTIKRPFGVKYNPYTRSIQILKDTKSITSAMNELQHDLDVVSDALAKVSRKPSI
Assay: TPH1 in vitro inhibition assay (kinetic fluorescence)
Type: biochemical
Summary of the method: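 Final mix: 15 nM MBP-TPH1, 30 μM Trp, 36 μM 6-methyltetrahydropterin, 25 μM ferrous ammonium sulfate, 50 mM MES pH 7.1, 1% DMSO, room temperature.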

[1] = read-out: TPH1 Range (TPH1 inhibition IC50)
[2] = TPH1 Range (TPH1 inhibition IC50)

Structure (SMILES)	IC50 [1] [nM]	IC50 [2] [nM]
COc1ccc(-c2ccc([C@@H](Oc3cc(N4CCC5(CC4)CN[C@H](C(=O)O)C5)nc(C)n3)C(F)(F)F)c(-n3ccc(C)n3)c2)cn1 [Example 29f, (S)-8-(2-methyl-6-((R)-2,2,2-trifluoro-1-(4-(6-methoxypyridin-3-yl)-2-(3-methyl-1H-pyrazol-1-yl)phenyl)ethoxy)pyrimidin-4-yl)-2,8-diazaspiro[4.5]decane-3-carboxylic acid]	< 50	–
Cc1ccn(-c2cc(-c3cccc(Cl)c3)ccc2[C@@H](Oc2cc(N3CCC4(CC3)CN[C@H](C(=O)O)C4)nc(N)n2)C(F)(F)F)n1 [Example 1bk, (S)-8-(2-amino-6-((R)-1-(3′-chloro-3-(3-methyl-1H-pyrazol-1-yl)-[1,1′-biphenyl]-4-yl)-2,2,2-trifluoroethoxy)pyrimidin-4-yl)-2,8-diazaspiro[4.5]decane-3-carboxylic acid]	< 50	–
Cc1ccn(-c2cc(-c3ccc(OCc4ccccc4)c(F)c3)ccc2[C@@H](Oc2cc(N3CCC4(CC3)CN[C@H](C(=O)O)C4)nc(N)n2)C(F)(F)F)n1 [Example 1bx, (S)-8-(2-amino-6-((R)-1-(4′-(benzyloxy)-3′-fluoro-3-(3-methyl-1H-pyrazol-1-yl)-[1,1′-biphenyl]-4-yl)-2,2,2-trifluoroethoxy)pyrimidin-4-yl)-2,8-diazaspiro[4.5]decane-3-carboxylic acid]	< 50	–
Nc1nc(O[C@H](c2ccc(Cl)cc2-c2cccc(Cl)c2)C(F)(F)F)cc(N2CCC3(CC2)CN[C@H](C(=O)O)C3)n1 [Example 34a, (S)-8-(2-amino-6-((R)-1-(3′,5-dichloro-[1,1′-biphenyl]-2-yl)-2,2,2-trifluoroethoxy)pyrimidin-4-yl)-2,8-diazaspiro[4.5]decane-3-carboxylic acid]	–	< 50
Cc1ccn(-c2cc(-c3cccc(C(=O)N(C)C)c3)ccc2[C@@H](Oc2cc(N3CCC4(CC3)CN[C@H](C(=O)O)C4)nc(C)n2)C(F)(F)F)n1 [Example 29m, (S)-8-(6-((R)-1-(3′-(dimethylcarbamoyl)-3-(3-methyl-1H-pyrazol-1-yl)-[1,1′-biphenyl]-4-yl)-2,2,2-trifluoroethoxy)-2-methylpyrimidin-4-yl)-2,8-diazaspiro[4.5]decane-3-carboxylic acid]	50 to 300	–
Cc1ccn(-c2cc(Cl)ccc2[C@@H](Oc2nc(N)nc(N3CCC4(CC3)CNC(C(=O)O)C4)n2)C(F)(F)F)n1 (stereo partly drawn) [Example 40, 8-(4-amino-6-((R)-1-(4-chloro-2-(3-methyl-H-pyrazol-1-yl)phenyl)-2,2,2-trifluoroethoxy)-1,3,5-triazin-2-yl)-2,8-diazaspiro[4.5]decane-3-carboxylic acid]	300 to 3000	–
CCCCOC(=O)c1ccc([C@@H](Oc2cc(N3CCC4(CC3)CN[C@H](C(=O)O)C4)nc(N)n2)C(F)(F)F)c(-n2ccc(C)n2)c1 [Example 18c, (S)-8-(2-amino-6-((R)-1-(4-(butoxycarbonyl)-2-(3-methyl-1H-pyrazol-1-yl)phenyl)-2,2,2-trifluoroethoxy)pyrimidin-4-yl)-2,8-diazaspiro[4.5]decane-3-carboxylic acid]	< 50	–
Nc1nc(O[C@H](c2ccc(Cl)cc2-c2ccccc2)C(F)(F)F)cc(N2CCC3(CC2)CN[C@@H](C(=O)O)C3)n1 [Example 54h, (R)-8-(2-amino-6-((R)-1-(5-chloro-[1,1′-biphenyl]-2-yl)-2,2,2-trifluoroethoxy)pyrimidin-4-yl)-2,8-diazaspiro[4.5]decane-3-carboxylic acid]	–	3000 to 10000
Cc1ccn(-c2cc(-c3cccc(F)c3)ccc2[C@@H](Oc2cc(N3CCC4(CC3)CN[C@H](C(=O)O)C4)nc(N)n2)C(F)(F)F)n1 [Example 1ac, (S)-8-(2-amino-6-((R)-2,2,2-trifluoro-1-(3′-fluoro-3-(3-methyl-1H-pyrazol-1-yl)-[1,1′-biphenyl]-4-yl)ethoxy)pyrimidin-4-yl)-2,8-diazaspiro[4.5]decane-3-carboxylic acid]	< 50	–
N#Cc1cccc(-c2cc(Cl)ccc2[C@@H](Oc2cc(N3CCC4(CC3)CN[C@H](C(=O)O)C4)nc(N)n2)C(F)(F)F)c1 [Example 34x, (S)-8-(2-amino-6-((R)-1-(5-chloro-3′-cyano-[1,1′-biphenyl]-2-yl)-2,2,2-trifluoroethoxy)pyrimidin-4-yl)-2,8-diazaspiro[4.5]decane-3-carboxylic acid]	–	< 50
Cc1ccn(-c2cc(-c3ccc(Cl)c(C)c3)ccc2[C@@H](Oc2cc(N3CCC4(CC3)CN[C@H](C(=O)O)C4)nc(N)n2)C(F)(F)F)n1 [Example 1bd, (S)-8-(2-amino-6-((R)-1-(4′-chloro-3′-methyl-3-(3-methyl-1H-pyrazol-1-yl)-[1,1′-biphenyl]-4-yl)-2,2,2-trifluoroethoxy)pyrimidin-4-yl)-2,8-diazaspiro[4.5]decane-3-carboxylic acid]	< 50	–
CCOc1ccc(-c2ccc([C@@H](Oc3cc(N4CCC5(CC4)CN[C@H](C(=O)O)C5)nc(N)n3)C(F)(F)F)c(-n3ccc(C)n3)c2)cn1 [Example 1cs, (S)-8-(2-amino-6-((R)-1-(4-(6-ethoxypyridin-3-yl)-2-(3-methyl-1H-pyrazol-1-yl)phenyl)-2,2,2-trifluoroethoxy)pyrimidin-4-yl)-2,8-diazaspiro[4.5]decane-3-carboxylic acid]	< 50	–
CC(=O)NCc1ccc(-c2ccc([C@@H](Oc3cc(N4CCC5(CC4)CN[C@H](C(=O)O)C5)nc(N)n3)C(F)(F)F)c(-n3ccc(C)n3)c2)cc1 [Example 1x, (S)-8-(6-((R)-1-(4′-(acetamidomethyl)-3-(3-methyl-1H-pyrazol-1-yl)-[1,1′-biphenyl]-4-yl)-2,2,2-trifluoroethoxy)-2-aminopyrimidin-4-yl)-2,8-diazaspiro[4.5]decane-3-carboxylic acid]	< 50	–
Nc1nc(O[C@H](c2ccc(Cl)cc2-c2ccc(S(N)(=O)=O)cc2)C(F)(F)F)cc(N2CCC3(CC2)CN[C@H](C(=O)O)C3)n1 [Example 34ae, (S)-8-(2-amino-6-((R)-1-(5-chloro-4′-sulfamoyl-[1,1′-biphenyl]-2-yl)-2,2,2-trifluoroethoxy)pyrimidin-4-yl)-2,8-diazaspiro[4.5]decane-3-carboxylic acid]	–	300 to 3000
Cc1ccn(-c2cc(CO)ccc2[C@@H](Oc2cc(N3CCC4(CC3)CN[C@H](C(=O)O)C4)nc(N)n2)C(F)(F)F)n1 [Example 25, (S)-8-(2-Amino-6-((R)-2,2,2-trifluoro-1-(4-(hydroxymethyl)-2-(3-methyl-H-pyrazol-1-yl)phenyl)ethoxy)pyrimidin-4-yl)-2,8-diazaspiro[4.5]decane-3-carboxylic acid]	< 50	–
CCOc1cccc(-c2ccc([C@@H](Oc3cc(N4CCC5(CC4)CN[C@H](C(=O)O)C5)nc(N)n3)C(F)(F)F)c(-n3ccc(C)n3)c2)c1 [Example 1ap, (S)-8-(2-amino-6-((R)-1-(3′-ethoxy-3-(3-methyl-1H-pyrazol-1-yl)-[1,1′-biphenyl]-4-yl)-2,2,2-trifluoroethoxy)pyrimidin-4-yl)-2,8-diazaspiro[4.5]decane-3-carboxylic acid]	< 50	–

Now from value to molecule, other results behind:

IC50 [1] [nM]	Structure (SMILES)	IC50 [2] [nM]
3000 to 10000	CC(Nc1cc(N2CCC3(CC2)CN[C@H](C(=O)O)C3)nc(N)n1)C12CC3CC(CC(C3)C1)C2 (stereo partly drawn) [Example 41d, (3S)-8-(6-((1-((1R,3S,5S)-adamantan-1-yl)ethyl)amino)-2-aminopyrimidin-4-yl)-2,8-diazaspiro[4.5]decane-3-carboxylic acid]	–
300 to 3000	Nc1nc(O[C@H](c2ccc(-c3ccc(OC(F)(F)F)cc3)cc2)C(F)(F)F)cc(N2CCC3(CC2)CN[C@H](C(=O)O)C3)n1 [Example 55cm, (S)-8-(2-amino-6-((R)-2,2,2-trifluoro-1-(4′-(trifluoromethoxy)-[1,1′-biphenyl]-4-yl)ethoxy)pyrimidin-4-yl)-2,8-diazaspiro[4.5]decane-3-carboxylic acid]	–
50 to 300	Nc1nc(O[C@H](c2ccc(-c3ccc4sncc4c3)cc2)C(F)(F)F)cc(N2CCC3(CC2)CN[C@H](C(=O)O)C3)n1 [Example 55j, (S)-8-(2-amino-6-((R)-1-(4-(benzo[d]isothiazol-5-yl)phenyl)-2,2,2-trifluoroethoxy)pyrimidin-4-yl)-2,8-diazaspiro[4.5]decane-3-carboxylic acid]	–
50 to 300	Nc1nc(O[C@H](c2ccc(-c3ccc(O)cc3)cc2)C(F)(F)F)cc(N2CCC3(CC2)CN[C@H](C(=O)O)C3)n1 [Example 55cb, (S)-8-(2-amino-6-((R)-2,2,2-trifluoro-1-(4′-hydroxy-[1,1′-biphenyl]-4-yl)ethoxy)pyrimidin-4-yl)-2,8-diazaspiro[4.5]decane-3-carboxylic acid]	–
50 to 300	Nc1nc(O[C@H](c2ccc(Cl)cc2-c2ccc(F)cc2)C(F)(F)F)cc(N2CCC3(CC2)CN[C@H](C(=O)O)C3)n1 [Example 34bv, (S)-8-(2-amino-6-((R)-1-(5-chloro-4′-fluoro-[1,1′-biphenyl]-2-yl)-2,2,2-trifluoroethoxy)pyrimidin-4-yl)-2,8-diazaspiro[4.5]decane-3-carboxylic acid]	–
50 to 300	Nc1nc(O[C@H](c2ccc(Cl)cc2-c2cccc([N+](=O)[O-])c2)C(F)(F)F)cc(N2CCC3(CC2)CNC(C(=O)O)C3)n1 (stereo partly drawn) [Example 34e, 8-(2-amino-6-((R)-1-(5-chloro-3′-nitro-[1,1′-biphenyl]-2-yl)-2,2,2-trifluoroethoxy)pyrimidin-4-yl)-2,8-diazaspiro[4.5]decane-3-carboxylic acid]	–
